We go through 48 compounds from BindingDB's records for patent US12065430 (Taiho Pharmaceutical, 2024).

This test deals with T1, Son of sevenless homolog 1 [564-1049]/GTPase KRas [G12C] (UniProt P01116+Q07889, G12C).
T1 construct: 564-1049
T1 sequence (P01116 whole entry G12C): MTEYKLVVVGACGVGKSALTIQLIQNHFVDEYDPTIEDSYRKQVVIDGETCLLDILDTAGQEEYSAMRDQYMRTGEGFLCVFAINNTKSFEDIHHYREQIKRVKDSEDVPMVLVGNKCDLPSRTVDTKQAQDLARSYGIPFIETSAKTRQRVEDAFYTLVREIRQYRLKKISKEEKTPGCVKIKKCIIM
T1 sequence (Q07889 564-1049): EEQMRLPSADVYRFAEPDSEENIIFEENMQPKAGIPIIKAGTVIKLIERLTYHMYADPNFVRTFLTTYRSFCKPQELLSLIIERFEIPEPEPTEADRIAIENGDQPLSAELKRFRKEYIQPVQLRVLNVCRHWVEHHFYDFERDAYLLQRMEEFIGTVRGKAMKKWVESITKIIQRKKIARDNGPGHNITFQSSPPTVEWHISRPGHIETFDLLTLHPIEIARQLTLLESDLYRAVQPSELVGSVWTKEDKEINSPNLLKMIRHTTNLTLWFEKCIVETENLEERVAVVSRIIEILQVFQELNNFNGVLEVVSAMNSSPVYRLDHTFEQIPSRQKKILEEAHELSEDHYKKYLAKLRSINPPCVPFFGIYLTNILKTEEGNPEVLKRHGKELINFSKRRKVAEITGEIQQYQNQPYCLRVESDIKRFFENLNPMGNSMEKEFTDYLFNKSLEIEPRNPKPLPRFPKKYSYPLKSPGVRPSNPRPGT
Put plainly: Evaluation of Inhibitory Activity of Compounds on KRAS G12C Nucleotide (GDP-GTP) Exchange Reaction. How it is done: The inhibitory activity of compounds on exchange reaction of GDP into GppNHp in Bodipy (trademark) FL-bound KRAS G12C was examined by fluorescence measurement using human recombinant KRAS G12C and SOS1 proteins.For the preparation of KRAS G12C to which Bodipy FL GDP was bound, first, […] KRAS G12C (amino acid region: 1-169) and 1 mM Bodipy FL GDP (Invitrogen, G22360) were incubated for 1 hour in a buffer (20 mM Tris-HCl (pH 7.5), 50 mM NaCl, 1 mM DTT) in ice in the presence of 2.5 mM EDTA. Thereafter, MgCl2 with a final concentration of 10 mM was added, and the mixture was incubated at room temperature for 30 minutes. The protein was allowed to pass through a NAP-5 column to remove free nucleotides and was used for compound evaluation.For the measurement of the inhibitory activity of compounds on nucleotide exchange reaction, first, the compound of the present invention was diluted stepwise with dimethyl sulfoxide (DMSO). Subsequently, a solution of the gradually diluted compound of the present invention in DMSO (the final concentration of DMSO: 5%) and KRAS G12C (25 nM) bound to Bodipy FL GDP were added to a reaction buffer (20 mM Tris-HCl (pH 7.5), 100 mM NaCl, 1 mM MgCl2, 2 mM DTT, 0.1% Tween20), followed by preincubation at 25° C. for 4 hours. Thereafter, Son of Sevenless Homolog 1 (SOS1, amino acid region: 564-1049) and GppNHp (GMPPNP, Jena Bioscience GmbH, NU-401-50) were added such that their final concentration was 100 nM and 1 μM respectively, followed by reaction for 30 minutes. The change in fluorescence intensity of Bodipy FL (excitation wavelength: 485 nm, fluorescence wavelength: 520 nm) immediately after the start of reaction and after 30 minutes from the start of reaction was standardized. The signal value for only DMSO was determined to be 0% inhibition, and the signal value for no addition of GppNHp was determined to be 100% inhibition. The compound concentration at which 50% inhibition is achieved was determined to be IC50 (nM), and was calculated.
A word on the IC50: it is the concentration that inhibits the measured activity by half. Read a high IC50 as a need for much substance. `C=CC(=O)N1CC(NC(=O)c2cnc(CNc3n[nH]c4cc(Cl)c(C(C)(C)C)cc34)n2C)C1` [US12065430, Example 1]: half-maximal inhibition (IC50) was put at 16 nM.
With `C=CC(=O)N1CC(NC(=O)c2sc(CNc3n[nH]c4cc(Cl)c(C(C)(C)C)cc34)nc2C)C1` [US12065430, Example 2] the figure was 365 nM; with `C=CC(=O)N1CC(NC(=O)c2cnc(C(C)Nc3n[nH]c4cc(Cl)c(C(C)(C)C)cc34)n2C)C1` (stereo not drawn) [US12065430, Example 4], 1560 nM.
With `C=CC(=O)N1CC(NC(=O)c2c(Cl)c(CNc3n[nH]c4cc(Cl)c(C(C)(C)C)cc34)nn2C)C1` [US12065430, Example 6] the figure was 791 nM; with `C=CC(=O)N1CC(NC(=O)c2csc(CNc3n[nH]c4cc(Cl)c(C(C)(C)C)cc34)n2)C1` [US12065430, Example 7], 4260 nM; with `C=CC(=O)N1CC(NC(=O)c2cnc(CNc3n[nH]c4cc(Cl)c(C(C)(C)C)cc34)s2)C1` [US12065430, Example 8], 783 nM.
With `C=CC(=O)N1CC(NC(=O)c2cc(CNc3n[nH]c4cc(Cl)c(C(C)(C)C)cc34)nn2C)C1` [US12065430, Example 9] the figure was 3140 nM; with `C=CC(=O)N1CC(NC(=O)c2c(C)c(CNc3n[nH]c4cc(Cl)c(C(C)(C)C)cc34)nn2C)C1` [US12065430, Example 10], 129 nM.
Compound `C=CC(=O)N1CC(NC(=O)c2oc(CNc3n[nH]c4cc(Cl)c(C(C)(C)C)cc34)nc2C)C1` [US12065430, Example 11] gave an IC50 of 1060 nM.
As for `C=CC(=O)N1CC(NC(=O)c2c(C)nc(CNc3n[nH]c4cc(Cl)c(C(C)(C)C)cc34)n2CC)C1` [US12065430, Example 12], the IC50 amounted to 16 nM.
In turn, `C=CC(=O)N1CC(NC(=O)c2c(C)nc(CNc3n[nH]c4cc(Cl)c(C(C)(C)C)cc34)n2C(C)C)C1` [US12065430, Example 13] registered a concentration for half-maximal inhibition (IC50) of 15 nM.
With `C=CC(=O)N1CC(NC(=O)c2c(C)nc(CNc3n[nH]c4cc(Cl)c(C(C)(C)C)cc34)n2CCOC)C1` [US12065430, Example 14] the figure was 24 nM.
For `C=CC(=O)N1CC(NC(=O)c2c(C)nc(CNc3n[nH]c4cc(Cl)c(C(C)(C)C)cc34)n2Cc2ccccc2)C1` [US12065430, Example 15], half-maximal inhibition (IC50) was put at 84 nM.
The value for `C=CC(=O)N1CC(NC(=O)c2c(C)nc(CNc3n[nH]c4cc(Cl)c(C(C)(C)C)cc34)n2CCN(C)C)C1` [US12065430, Example 16] was 25 nM.
The compound `C=CC(=O)N1CC(NC(=O)c2c(C)nc(CNc3n[nH]c4cc(Cl)c(C(C)(C)C)cc34)n2C2CCCC2)C1` [US12065430, Example 17] yielded an IC50 of 17 nM.
With `C=CC(=O)N1CC(NC(=O)c2c(C)nc(CNc3n[nH]c4cc(Cl)c(C(C)(C)C)cc34)n2CCCC)C1` [US12065430, Example 18] the figure was 12 nM; with `C=CC(=O)N1CC(NC(=O)c2c(C)nc(CNc3n[nH]c4cc(Cl)c(C(C)(C)C)cc34)n2CCC)C1` [US12065430, Example 19], 9 nM.
With `C=CC(=O)N1CC(NC(=O)c2c(C)nc(CNc3n[nH]c4cc(Cl)c(C(C)(C)C)cc34)n2C(C)CC)C1` (stereo not drawn) [US12065430, Example 20] the figure was 31 nM; with `C=CC(=O)N1CC(NC(=O)c2c(C)nc(CNc3n[nH]c4cc(Cl)c(C(C)(C)C)cc34)n2C(F)F)C1` [US12065430, Example 21], 58 nM.
For the compound `C=CC(=O)N1CC(NC(=O)c2c(C)nc(CNc3n[nH]c4cc(Cl)c(C(C)(C)C)cc34)n2CC(F)(F)F)C1` [US12065430, Example 22], 55 nM corresponded to half-maximal inhibition (IC50).
The value for `C=CC(=O)N1CC(NC(=O)c2c(C)nc(CNc3n[nH]c4cc(Cl)c(C(C)(C)C)cc34)n2C2CC2)C1` [US12065430, Example 23] was 7 nM; that for `C=CC(=O)N1CC(NC(=O)c2c(C)nc(CNc3n[nH]c4cc(Cl)c(C(C)(C)C)cc34)n2C(C)(C)C)C1` [US12065430, Example 24] was 35 nM; that for `C=CC(=O)N1CC(NC(=O)c2c(C(F)(F)F)nc(CNc3n[nH]c4cc(Cl)c(C(C)(C)C)cc34)n2C)C1` [US12065430, Example 25] was 163 nM.
`C=CC(=O)N1CC(NC(=O)c2c(I)nc(CNc3n[nH]c4cc(Cl)c(C(C)(C)C)cc34)n2C)C1` [US12065430, Example 26] came in with a half-inhibitory concentration (IC50) of 69 nM.
The value for `C=CC(=O)N1CC(NC(=O)c2c(Br)nc(CNc3n[nH]c4cc(Cl)c(C(C)(C)C)cc34)n2C)C1` [US12065430, Example 27] was 8 nM; that for `C=CC(=O)N1CC(NC(=O)c2c(C#N)nc(CNc3n[nH]c4cc(Cl)c(C(C)(C)C)cc34)n2C)C1` [US12065430, Example 28] was 70 nM.
The value for `C=CC(=O)N1CC(NC(=O)c2c(Cl)nc(CNc3n[nH]c4cc(Cl)c(C(C)(C)C)cc34)n2C)C1` [US12065430, Example 29] was 6 nM; that for `C=CC(=O)N1CC(NC(=O)c2c(F)nc(CNc3n[nH]c4cc(Cl)c(C(C)(C)C)cc34)n2C)C1` [US12065430, Example 30] was 11 nM; that for `C=CC(=O)N1CC(NC(=O)c2c(CC)nc(CNc3n[nH]c4cc(Cl)c(C(C)(C)C)cc34)n2C)C1` [US12065430, Example 31] was 642 nM.
For the compound `C=CC(=O)N1CC(NC(=O)c2c(C(F)(F)F)nc(CNc3n[nH]c4cc(Cl)c(C(C)(C)C)cc34)n2C(C)C)C1` [US12065430, Example 32], the half-maximal inhibitory concentration (IC50) was found to be 50 nM.
With `C=CC(=O)N1CC(NC(=O)c2c(F)nc(CNc3n[nH]c4cc(Cl)c(C(C)(C)C)cc34)n2C(C)C)C1` [US12065430, Example 34] the figure was 13 nM; with `C=CC(=O)N1CC(NC(=O)c2c(Cl)nc(CNc3n[nH]c4cc(Cl)c(C(C)(C)C)cc34)n2C(C)C)C1` [US12065430, Example 35], 8 nM; with `C=CC(=O)N1CC(NC(=O)c2cnc(CNc3n[nH]c4cc(Cl)c(C)cc34)n2C)C1` [US12065430, Example 37], 5480 nM.
`C=CC(=O)N1CC(NC(=O)c2cnc(CNc3n[nH]c4cc(Cl)c(C=C)cc34)n2C)C1` [US12065430, Example 38]: the midpoint of inhibition, the IC50, lay at 2170 nM.
The value for `C=CC(=O)N1CC(NC(=O)c2cnc(CNc3n[nH]c4cc(Cl)c(CC)cc34)n2C)C1` [US12065430, Example 39] was 870 nM; that for `C=CC(=O)N1CC(NC(=O)c2cnc(CNc3n[nH]c4cc(Cl)c(C(C)(C)C)nc34)n2C)C1` [US12065430, Example 40] was 27 nM; that for `C=CC(=O)N1CC(NC(=O)c2c(C)nc(CNc3n[nH]c4cc(C)c(C(C)(C)C)cc34)n2C)C1` [US12065430, Example 41] was 14 nM.
`C=CC(=O)N1CC(NC(=O)c2c(C)nc(CNc3n[nH]c4ccc(C(C)(C)C)cc34)n2C(C)C)C1` [US12065430, Example 42] came in with an IC50 of 68 nM.
The value for `C=CC(=O)N1CC(NC(=O)c2c(Cl)nc(CNc3n[nH]c4cc(Cl)c(C(=C)C(F)(F)F)cc34)n2C(C)C)C1` [US12065430, Example 43] was 809 nM.
With `C=CC(=O)N1CC(NC(=O)c2c(Cl)nc(CNc3n[nH]c4cc(Cl)c(C5(C(F)(F)F)CC5)cc34)n2C(C)C)C1` [US12065430, Example 44] the figure was 180 nM.
In turn, `C=CC(=O)N1CC(NC(=O)c2c(Cl)nc(CNc3n[nH]c4cc(Cl)c(C(C)C)cc34)n2C(C)C)C1` [US12065430, Example 45] gave an IC50 of 24 nM.
In turn, `C=CC(=O)N1CCC(NC(=O)c2c(C)nc(CNc3n[nH]c4cc(Cl)c(C(C)(C)C)cc34)n2C)CC1` [US12065430, Example 47] returned a half-inhibitory concentration (IC50) of 1730 nM.
The value for `C=CC(=O)N1CC(N(C)C(=O)c2c(C)nc(CNc3n[nH]c4cc(Cl)c(C(C)(C)C)cc34)n2C)C1` [US12065430, Example 49] was 208 nM; that for `C=CC(=O)N1CCN(C(=O)c2c(C)nc(CNc3n[nH]c4cc(Cl)c(C(C)(C)C)cc34)n2C)CC1` [US12065430, Example 50] was 4280 nM; that for `C=CC(=O)N(C)C1CN(C(=O)c2c(C)nc(CNc3n[nH]c4cc(Cl)c(C(C)(C)C)cc34)n2C)C1` [US12065430, Example 51] was 42 nM.
Take `C=CC(=O)N1CC(NC(=O)c2c(C)nc(CNc3n[nH]c4cc(Cl)c(C(C)(C)C)cc34)n2C)C(F)(F)C1` (stereo not drawn) [US12065430, Example 53]: the midpoint of inhibition, the IC50, lay at 42 nM.
With `C=CC(=O)N1C[C@H](NC(=O)c2c(C)nc(CNc3n[nH]c4cc(Cl)c(C(C)(C)C)cc34)n2C)C2(CC2)C1` [US12065430, Example 54] the figure was 301 nM; with `C=CC(=O)N1C[C@@H](CC#N)[C@@H](NC(=O)c2c(C)nc(CNc3n[nH]c4cc(Cl)c(C(C)(C)C)cc34)n2C)C1` [US12065430, Example 65], 19 nM.
